Peptide text beside a SMILES is read from it.
Experiments:
[1] = biological target: T1, FPR1 (Homo sapiens, UniProt P21462); assay: Ligand binding assay, competition with FITC-fMLF at 4°C, RBL-2H3/ETFR cells; parameters: expressed in transfected cells; details: 100 nM peptide pre-incubated 60 min at 4°C, then 10 nM FITC-fMLF 60 min at 4°C; cell-associated fluorescence; triplicates
T1 sequence (P21462 1-350): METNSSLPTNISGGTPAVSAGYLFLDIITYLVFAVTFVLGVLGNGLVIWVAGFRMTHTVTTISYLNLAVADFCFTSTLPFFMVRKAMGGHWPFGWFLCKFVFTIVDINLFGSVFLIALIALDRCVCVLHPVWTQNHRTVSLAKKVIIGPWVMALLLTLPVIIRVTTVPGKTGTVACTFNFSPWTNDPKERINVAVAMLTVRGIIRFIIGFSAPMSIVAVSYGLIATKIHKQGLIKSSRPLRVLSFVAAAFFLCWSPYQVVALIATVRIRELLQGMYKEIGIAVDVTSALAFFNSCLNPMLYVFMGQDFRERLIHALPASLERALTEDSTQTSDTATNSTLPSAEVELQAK
Method: We have previously documented that SRSRY competes with the bacterial-derived N-formyl-methionyl-leucyl-phenylalanine peptide (fMLF) for binding to FPR type 1 (FPR1) and that both SRSRY and fMLF promote cell migration by triggering FPR1 internalization. […] Quantification of cell-associated fluorescence was assessed by reading cell lysates with a fluorescence plate reader. RBL-2H3 cells lack FPR1, thus they display very low uptake that was not saturable with unlabeled fMLF (Fig 2A). […] To evaluate the effect of [SRSRY] on agonist-dependent FPR1 internalization, binding experiments were performed at 37°C. […] Thus, we assessed whether [SRSRY] elicits effects on fMLF-directed cell migration. RBL-2H3/ETFR cell migration toward 10 nM fMLF was monitored in real-time for 4 hours as Cell Index changes due to the adhesion of migrating cells to microelectrodes using the xCELLigence RTCA technology as previously described. […]
Fig 2 Both linear and cyclic SRSRY peptides bind to FPR1. […] Fluorimetric measurement of cell-associated fluorescence was assed using 485 nm excitation and 535 nm emission filters. Data are expressed as a percentage of the fluorescence associated to RBL-2H3 cells exposed to FITC-fMLF alone (CTL = 100%) and represent a mean ± SD from triplicates. *Statistical significance (t-test) against None with p<0.001. […] Cell migration of RBL-2H3/ETFR cells monitored by the xCELLigence system. […]

[2] = Serum stability in human serum (RP-HPLC); assay type: in vitro ADME; details: 37°C, peptide 10^-2 mol/L, acetonitrile precipitation; for remaining at 1 h: RP-HPLC C18, % of concentration at time 0, read-out: residual concentration after one hour of exposure to serum; for remaining at 24 h: RP-HPLC C18, % of concentration at time 0, read-out: residual concentration after 24 hours in serum
Method: Cyclization of peptides listed in Table 1was obtained as described in the Material and Methods, using the strategy depicted in the S1 Fig. The stability of the linear peptide Ser-Arg-Ser-Arg-Tyr (SRSRY) and cyclized peptide Ser-Arg-Ser-Arg-Tyr [SRSRY] in human serum was investigated through incubation of the peptide at a 10^–2 mol/L in human serum and samples were taken at different time points and analysed by Reversed-phase chromatography (RP-HPLC). Serum-dependent degradation of peptides was monitored for up to 24 hours.
Fig 1 Stability of SRSRY and [SRSRY] peptides in human serum. The stability of [SRSRY] and SRSRY was performed by the injection of the peptide at a 10^–2 mol/L in human serum at 37°C. Intervals of analysis by RP-HPLC on the compound incubated in serum were carried out growing with time from 1 to 24 hours. Values are expressed as a percentage of peptide concentration assessed at time 0. [SRSRY]
The stability of SRSRY and [SRSRY] was investigated in human serum. The peptides were incubated at 37°C in human serum at a concentration of 10^-2mol/L. Aliquots ([…]) of serum were removed at time points varying from 0, 1, 2, 4, 6, and 24 hours and acetonitrile ([…]) was added to each aliquot before centrifuging (13000 rpm, 15 min). Aliquots ([…]) of the supernatant were then analyzed by RP-HPLC after passing through Phenomenex Luna 100A C18 5μ, linear gradient from 0–90% acetonitrile in water over 25 minutes.

Row | remaining at 1 h [2] [%] | remaining at 24 h [2] [%] | SMILES | binding of FITC-fMLF to RBL-2H3/ETFR cells [1]
1 | < 75 | < 50 | N=C(N)NCCC[C@H](NC(=O)[C@H](CO)NC(=O)[C@H](CCCNC(=N)N)NC(=O)[C@@H](N)CO)C(=O)N[C@@H](Cc1ccc(O)cc1)C(N)=O [SRSRY, H-Ser-Arg-Ser-Arg-Tyr-NH2] (H-SRSRY-NH2) | reduced to the basal level
2 | < 85 | > 80 | N=C(N)NCCC[C@@H]1NC(=O)[C@H](CO)NC(=O)[C@H](Cc2ccc(O)cc2)NC(=O)[C@H](CCCNC(=N)N)NC(=O)[C@H](CO)NC1=O [[SRSRY], [Ser-Arg-Ser-Arg-Tyr]] (cyclo(RSRYS)) | inhibits binding of fluorescent agonist to RBL-2H3/ETFR cells to a similar extent as compared to fMLF or SRSRY
